Reference: patent US8232248B2, “Treatment of rheumatoid arthritis with mammal beta defensins” (Novozymes Adenium Biotech A/S, priority 2008, dated 2012)

Key:
[1] = tested on: IL-1β production from human peripheral blood mononuclear cells (PBMC); experiment: IL-1β production from PBMC stimulated with LPS or LTA, 24 h, Cytometric Bead Array; format: cell-based; settings: Table 20
Procedure: (§1) Peripheral blood was drawn from healthy volunteers (with approval from the relevant ethical committee in Denmark). Heparinized blood was diluted 1/1 v/v with RPMI and were subjected to Ficoll density centrifugation within 2 h of drawing. Plasma was collected from the top from individual donors and was kept on ice until it was used at 2% in the culture medium (autologous culture medium). Isolated PBMC were resuspended in autologous culture medium and seeded in 96-well culture plates with 255.000 cells per well in a total of 200 μl. […] The concentrations used for stimulation were optimized on 3 different donors in initial experiments, for LPS two different concentrations were used to be sure to be on a cytokine level that is possible to modulate. In some experiments PBMC were treated with Dexamethason and Indomethacin alone and together with LPS or LTA as a control on downregulation of inflammatory cytokines. The supernatants were collected after incubation at 37° C. for 24 hours, and stored at −80° C. until cytokine measurement. Viability was measured by Alamar Blue (Biosource, DALL 1100) in all experiments and in some cases also by MTS (Promega) according to manufacturer's instruction and was in some experiments also judged by counting of the cells by a Nucleocounter.
(§2) Cytokine production in supernatants was measured by flow cytometry with a human inflammation cytometric bead array (CBA) according to manufacturer's instructions (BD) on a FACSarray flow cytometer. The following cytokines were measured: IL-8, IL-1β, IL-10, TNF, IL-12 p70, IL-6. In some experiments, cytokines were measured by ELISA kits from R&D systems (IL-10, TNF-α, IL-1β) according to the manufacturer' instruction.
(§3) All experiments were performed at least twice, with representative results shown. The data presented are expressed as mean plus/minus standard deviation (SD). […] Differences were considered significant for p<0.05.

PBMC = PBMC viability, Alamar Blue; format: cell-based, human; settings: 40 μg/ml
Procedure: as §1

[2] = tested on: TNF production from human peripheral blood mononuclear cells (PBMC); experiment: TNF production from PBMC stimulated with LPS, LTA, PGN or Pam3CSK4, 24 h, Cytometric Bead Array; format: cell-based; settings: Table 18; for TNF: Medium, non-treated 1
Procedure: as §1, §2, §3
Example 3 was carried out essentially as described in Example 2. […]

[3] = tested on: IL-10 production from human peripheral blood mononuclear cells (PBMC); experiment: IL-10 production from PBMC stimulated with LPS, LTA or PGN, 24 h, Cytometric Bead Array; format: cell-based; settings: Table 19
Procedure: as §1, §2, §3

[4] = test compound 1 μg/ml, LPS 0.6 ng/ml
[5] = test compound 1 μg/ml, LPS 20 ng/ml
[6] = test compound 1 μg/ml, Medium, non-treated 0
[7] = test compound 10 μg/ml, LPS 0.6 ng/ml
[8] = test compound 10 μg/ml, LPS 20 ng/ml
[9] = test compound 10 μg/ml, Medium, non-treated 0

Substance: hBD4 variant: consists of amino acids 3-39 of hBD4, SEQ ID NO:5 (ELDRICGYGTARCRKKCRSQEYRIGRCPNTYACCLRK; hBD-4 variant consisting of amino acids 3-39 of SEQ ID NO4)
- IL-1β % of control [1, 4]: 39%
- IL-1β ([1]; test compound 1 μg/ml, LPS 0.6 ng/ml, non-treated 741): 286 pg/mL
- IL-1β % of control [1, 5]: 40%
- IL-1β ([1]; test compound 1 μg/ml, LPS 20 ng/ml, non-treated 2544): 1004 pg/mL
- IL-1β [1, 6]: 0 pg/mL
- IL-1β % of control [1, 7]: 22%
- IL-1β ([1]; test compound 10 μg/ml, LPS 0.6 ng/ml, non-treated 741): 163 pg/mL
- IL-1β % of control [1, 8]: 18%
- IL-1β ([1]; test compound 10 μg/ml, LPS 20 ng/ml, non-treated 2544): 463 pg/mL
- IL-1β [1, 9]: 0 pg/mL
- Toxicity to the cells (PBMC): toxic to the cells
- TNF % of control [2, 4]: 64%
- TNF % of control [2, 5]: 36%
- TNF ([2]; test compound 1 μg/ml): 0 pg/mL
- TNF % of control [2, 7]: 29%
- TNF % of control [2, 8]: 6%
- TNF ([2]; test compound 10 μg/ml): 0 pg/mL
- Secretion of IL-10 ([3]; PBMC with LPS): significantly and dose-dependently enhanced
- IL-10 ([3]; test compound 1 μg/ml, LPS 0.6 ng/ml, non-treated 66): 90 pg/mL
- IL-10 [3, 6]: 0 pg/mL
- IL-10 ([3]; test compound 10 μg/ml, LPS 0.6 ng/ml, non-treated 66): 92 pg/mL
- IL-10 [3, 9]: 0 pg/mL
